Experimental data: patent US20220395472A1 (Dermavant Sciences GmbH, priority 2021, published 2022)

System: adults with plaque psoriasis
Test: Long-term open-label extension study (PSOARING 3): Physician Global Assessment (PGA), treatment episodes, treatment success, remittive effect
Assay type: in vivo, human
Procedure: This extension study consisted of up to 40 weeks of treatment and a 4 week, safety follow up period.
At the completion of the Week 12 visit of the DB, pivotal Phase 3 study, eligibility of the subjects opting to enroll in this extension study was confirmed. Study visits during the treatment period for all subjects occurred every 4 weeks (±3 days). A phone call was performed at Week 2 (Day 15). Unscheduled visits may have occurred, as needed. Subjects who withdrew from this study before Week 40 returned to the study center for an Early Termination visit. The total duration of this extension study participation was 44 weeks. Subjects in this study were treated as follows based on their PGA score from the Week 12 visit in the DB, pivotal Phase 3 study (Study DMVT 505 3001 or Study DMVT 505 3002).
The PGA was used to assess the primary efficacy endpoint in this study. The PGA is a clinical tool for assessing the current state/severity of a subject's psoriasis at a given time point. It is a static, 5 point, morphological assessment of overall disease severity, as determined by the Investigator, using the clinical characteristics of erythema, scaling, and plaque thickness/elevation as guidelines; higher PGA scores represent more severe disease (0=clear, 1=almost clear, 2=mild, 3=moderate, and 4=severe). The BSA affected was not considered in scoring of the PGA. Variations of the PGA are frequently used in clinical studies because it is a simple assessment, similar to those used in clinical practice. The PGA was performed first, prior to the % BSA, PASI, and LTS assessments.
Time to event parameters, such as the time from treatment success to subsequent worsening (PGA≥2) or duration of treatment episode, were summarized by the Kaplan Meier product limit method using OC.

[1] = Baseline PGA = 2, Tapinarof (Pivotal) group
[2] = Baseline PGA = 2, Vehicle (Pivotal) group
[3] = Baseline PGA = 3, Tapinarof (Pivotal) group

SMILES: CC(C)c1c(O)cc(/C=C/c2ccccc2)cc1O [Tapinarof, 3,5-Dihydroxy-4-isopropyl-trans-stilbene]
- Duration of 1st Success, Mean (SD) [1]: 81.3 (71.03) days
- Duration of 1st Success, Median [1]: 57.0 days
- Duration of 2nd Episode, Mean (SD) [1]: 78.2 (54.89) days
- Duration of 2nd Episode, Median [1]: 84.5 days
- Duration of 2nd Success, Mean (SD) [1]: 27.3 (30.06) days
- Duration of 2nd Success, Median [1]: 25.0 days
- Duration of 3rd Episode, Mean (SD) [1]: 1.0 (NE) days
- Duration of 3rd Episode, Median [1]: 1.0 days
- Duration of Last Episode, Mean (SD) [1]: 175.4 (98.91) days
- Duration of Last Episode, Median [1]: 197.0 days
- Duration of Last Success, Mean (SD) [1]: 76.1 (72.82) days
- Duration of Last Success, Median [1]: 56.0 days
- Total Duration of Treatment Episodes, Mean (SD) [1]: 190.1 (90.58) days
- Total Duration of Treatment Episodes, Median [1]: 223.0 days
- Total Duration of Treatment Success, Mean (SD) [1]: 84.6 (71.17) days
- Total Duration of Treatment Success, Median [1]: 78.0 days
- Average Duration of Episodes, Mean (SD) [2]: 169.8 (89.68) days
- Average Duration of Episodes, Median [2]: 194.0 days
- Average Duration of Treatment Success, Mean (SD) [2]: 94.6 (65.57) days
- Average Duration of Treatment Success, Median [2]: 87.0 days
- Duration of 1st Episode, Mean (SD) [2]: 173.2 (86.28) days
- Duration of 1st Episode, Median [2]: 194.0 days
- Duration of 1st Success, Mean (SD) [2]: 110.8 (72.69) days
- Duration of 1st Success, Median [2]: 115.5 days
- Duration of 2nd Episode, Mean (SD) [2]: 46.0 (42.39) days
- Duration of 2nd Episode, Median [2]: 27.0 days
- Duration of 2nd Success, Mean (SD) [2]: 34.7 (51.14) days
- Duration of 2nd Success, Median [2]: 27.5 days
- Duration of 3rd Episode, Mean (SD) [2]: 42.5 (19.09) days
- Duration of 3rd Episode, Median [2]: 42.5 days
- Duration of 3rd Success, Mean (SD) [2]: 29.0 (NE) days
- Duration of 3rd Success, Median [2]: 29.0 days
- Duration of Last Episode, Mean (SD) [2]: 166.2 (95.09) days
- Duration of Last Episode, Median [2]: 194.0 days
- Duration of Last Success, Mean (SD) [2]: 79.8 (77.74) days
- Duration of Last Success, Median [2]: 44.5 days
- Total Duration of Treatment Episodes, Mean (SD) [2]: 184.6 (78.19) days
- Total Duration of Treatment Episodes, Median [2]: 196.5 days
- Total Duration of Treatment Success, Mean (SD) [2]: 127.9 (73.01) days
- Total Duration of Treatment Success, Median [2]: 136.5 days
- Average Duration of Episodes, Mean (SD) (Baseline PGA = 3, Overall): 178.0 (94.87) days
- Average Duration of Episodes, Median (Baseline PGA = 3, Overall): 197.0 days
- Average Duration of Treatment Success, Mean (SD) (Baseline PGA = 3, Overall): 66.4 (56.88) days
- Average Duration of Treatment Success, Median (Baseline PGA = 3, Overall): 51.0 days
- Duration of 1st Episode, Median (Baseline PGA = 3, Overall): 197.0 days
- Duration of 1st Success, Mean (SD) (Baseline PGA = 3, Overall): 68.8 (57.40) days
- Duration of 1st Success, Median (Baseline PGA = 3, Overall): 56.0 days
- Duration of 2nd Episode, Mean (SD) (Baseline PGA = 3, Overall): 58.8 (46.15) days
- Duration of 2nd Episode, Median (Baseline PGA = 3, Overall): 55.0 days
- Duration of 2nd Success, Mean (SD) (Baseline PGA = 3, Overall): 31.5 (19.15) days
- Duration of 2nd Success, Median (Baseline PGA = 3, Overall): 28.5 days
- Duration of 3rd Episode, Mean (SD) (Baseline PGA = 3, Overall): 55.2 (27.44) days
- Duration of 3rd Episode, Median (Baseline PGA = 3, Overall): 57.0 days
- Duration of 3rd Success, Mean (SD) (Baseline PGA = 3, Overall): 28.0 (NE) days
- Duration of 3rd Success, Median (Baseline PGA = 3, Overall): 28.0 days
- Duration of 4th Episode, Mean (SD) (Baseline PGA = 3, Overall): 1.0 (NE) days
- Duration of 4th Episode, Median (Baseline PGA = 3, Overall): 1.0 days
- Duration of Last Episode, Mean (SD) (Baseline PGA = 3, Overall): 175.4 (98.29) days
- Duration of Last Episode, Median (Baseline PGA = 3, Overall): 197.0 days
- Duration of Last Success, Mean (SD) (Baseline PGA = 3, Overall): 64.1 (58.23) days
- Duration of Last Success, Median (Baseline PGA = 3, Overall): 51.0 days
- Total Duration of Treatment Episodes, Mean (SD) (Baseline PGA = 3, Overall): 187.9 (90.62) days
- Total Duration of Treatment Episodes, Median (Baseline PGA = 3, Overall): 198.0 days
- Total Duration of Treatment Success, Mean (SD) (Baseline PGA = 3, Overall): 75.5 (57.18) days
- Total Duration of Treatment Success, Median (Baseline PGA = 3, Overall): 64.0 days
- Average Duration of Episodes, Mean (SD) [3]: 184.7 (96.36) days
- Average Duration of Episodes, Median [3]: 198.0 days
- Average Duration of Treatment Success, Mean (SD) [3]: 63.9 (54.43) days
- Average Duration of Treatment Success, Median [3]: 48.3 days
- Duration of 1st Episode, Mean (SD) [3]: 187.1 (95.90) days
- Duration of 1st Episode, Median [3]: 198.0 days
- Duration of 1st Success, Mean (SD) [3]: 62.6 (55.19) days
- Duration of 1st Success, Median [3]: 43.0 days
- Duration of 2nd Episode, Mean (SD) [3]: 68.2 (77.66) days
- Duration of 2nd Episode, Median [3]: 30.0 days
- Duration of 2nd Success, Mean (SD) [3]: 57.0 (NE) days
- Duration of 2nd Success, Median [3]: 57.0 days
- Duration of Last Episode, Mean (SD) [3]: 182.2 (99.93) days
- Duration of Last Episode, Median [3]: 198.0 days
- Duration of Last Success, Mean (SD) [3]: 65.2 (54.03) days
- Duration of Last Success, Median [3]: 56.0 days
- Total Duration of Treatment Episodes, Mean (SD) [3]: 190.8 (95.50) days
- Total Duration of Treatment Episodes, Median [3]: 200.0 days
